How the values were obtained:
[1] = target: T1, His-KDM5A(PHD3) (Homo sapiens, UniProt P29375); experiment: AlphaScreen displacement assay, H3K4me3-Bn from His-KDM5A(PHD3); assay type: binding; settings: AlphaScreen; 25 nM protein and 25 nM peptide; average ± StdDev, n ≥ 3; NM = not measurable within the solubility range; read-out: IC50 for displacement of H3K4me3-Bn from His-KDM5A(PHD3)
T1 construct: KDM5A(PHD3) (1542 – 1660), encoded by a pGTLV2 vector; made in house; host or cells: E. coli Rosetta 2(DE3)pLysS
T1 sequence (P29375 1542-1660): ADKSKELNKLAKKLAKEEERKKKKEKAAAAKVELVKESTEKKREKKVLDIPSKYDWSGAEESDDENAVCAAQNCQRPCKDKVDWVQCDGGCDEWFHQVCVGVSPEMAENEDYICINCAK
Description: AlphaScreen is a homogenous bead-based assay used to study protein-protein interactions.[28] […] AlphaScreen beads were then added and incubated for 1 h. Changes in the AlphaScreen signals with increasing inhibitor concentrations were then measured to quantify the level of KDM5A(PHD3) and H3K4me3 binding, and IC50 values were determined.
His-tagged PHD finger constructs and H3K4me3-Bn peptides were diluted into AlphaScreen assay buffer (50mM HEPES, 150mM NaCl, 0.1% BSA, 0.01% Tween20, pH 7.5). An 8-point 1:2 dilution series was made for both protein and peptide. With a multichannel pipette (LTS P10), 5 µL protein was dispensed into 8 columns of a 384-well plate, followed by 5 µL of 4% DMSO in AlphaScreen assay buffer. The mixture was incubated at room temperature for 15 minutes, followed by dispensing 5 µL peptide across 8 rows of the 384-well plate, forming a cross-gradient of protein and peptide. The contents were incubated for 30 minutes at room temperature, followed by the addition of 5 µL of a mixture of AlphaScreen Streptavidin donor beads and Nickel Chelate acceptor beads in AlphaScreen assay buffer (20 µg/mL final). The samples were incubated for 60-120 minutes at room temperature in the dark, followed by measurement of luminescence on a BMG Labtech Pherastar plate reader (Software Ver. 5.30 R3, Firmware Ver. 1.21). The data was plotted in Prism Ver 7.01 (GraphPad Software, Inc.) and fitted to a linear model in order to determine the optimal concentration of protein and peptide within the linear signal range for each reader domain.
(§1) For peptide displacement assays, 5 µL of the inhibitor dilution series (at a concentration of 4% DMSO in AlphaScreen assay buffer) was pre-incubated with 5 µL of the protein at RT for 15 minutes. Peptide solution (5 µL) was added and incubated for 30 minutes at RT, followed by the addition of 5 µL of a mixture of AlphaScreen Streptavidin donor beads and Nickel Chelate acceptor beads in AlphaScreen assay buffer (20 µg/mL final). The contents were incubated for 60-120 minutes at RT in the dark, followed by measurement of luminescence on a BMG Labtech Pherastar plate reader (Software Ver. 5.30 R3, Firmware Ver. 1.21). The data was plotted in Prism Ver 7.01 (GraphPad Software, Inc.) and fitted to a Log(inhibitor) v/s response – variable slope model in order to obtain IC50 values.

[2] = target: T2, KDM7B(PHD) (Homo sapiens, UniProt Q9UPP1); experiment: AlphaScreen displacement of H3K4me3-Bn from His-KDM7B(PHD); assay type: binding; settings: AlphaScreen; 12.5 nM protein and 12.5 nM peptide; n ≥ 3; read-out: IC50 for displacement of H3K4me3-Bn from His-KDM7B(PHD)
T2 construct: made in house
T2 sequence (Q9UPP1 41-92 limits assumed): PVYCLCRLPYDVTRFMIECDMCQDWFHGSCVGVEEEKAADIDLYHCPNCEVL
Description: as §1

[3] = target: T3, KDM7C(PHD) (Homo sapiens, UniProt O75151); experiment: AlphaScreen displacement of H3K4me3-Bn from His-KDM7C(PHD); assay type: binding; settings: AlphaScreen; 25 nM KDM7C(PHD) and 6.25 nM peptide; n ≥ 3; read-out: IC50 for displacement of H3K4me3-Bn from His-KDM7C(PHD)
T3 construct: made in house
T3 sequence (O75151 5-56 limits assumed): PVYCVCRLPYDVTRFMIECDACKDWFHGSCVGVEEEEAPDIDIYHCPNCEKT
Description: as §1

[4] = target: KDM7A (PHD-JmjC) (Homo sapiens, UniProt Q6ZMT4); experiment: AlphaScreen displacement of H3K4me3-Bn from His-KDM7A(PHD-JmjC); assay type: binding; settings: AlphaScreen displacement of H3K4me3-Bn; n = 3; NI = No inhibition seen at 100 μM; read-out: IC50 KDM7A (PHD-JmjC) (Displacement)
Description: A dual-domain construct of KDM7A/B(PHD-JmjC), consisting of a JmjC domain in addition to the PHD-finger (Fig. 1B), was used to test for allosteric inhibition through binding at the PHD-finger.
as §1

[5] = target: T4, KDM7B (PHD-JmjC) (Homo sapiens, UniProt Q9UPP1); experiment: MALDI-TOF MS H3K9me2 demethylation assay, KDM7B(PHD-JmjC); assay type: biochemical; settings: at 100 µM; MALDI-TOF MS; substrate H3(1–5)K4me3K9me2; read-out: KDM7B (PHD-JmjC) (Catalytic), inhibition of H3K9me2 demethylation
T4 construct: A dual-domain construct of KDM7A/B(PHD-JmjC), consisting of a JmjC domain in addition to the PHD-finger; His; made in house
Description: H3(1–15)K9me2 and H3(1–5)K4me3K9me2 were used as substrates for KDM7A(PHD-JmjC) and KDM7B(PHD-JmjC), respectively. […] For KDM7B(PHD-JmjC), inhibition was most pronounced for 1a (95%) and 2a (89%) whilst others inhibited more weakly (Table 4).
For KDM7(PHD-JmjC) assays, 2.5 µM enzyme was used, with 5 µM H3(1-15)K9me2 peptide substrate for KDM7A or H3(1-15)K4me3K9me2 for KDM7B. Final concentrations were: 1mM ascorbate, 50 µM (NH4)2Fe(II)(SO4)2 and 200 µM 2OG. The mixture was quenched using formic acid after 10 minutes (KDM7A) or 5 minutes (KDM7B).

T4 sequence (Q9UPP1 37-483 limits assumed): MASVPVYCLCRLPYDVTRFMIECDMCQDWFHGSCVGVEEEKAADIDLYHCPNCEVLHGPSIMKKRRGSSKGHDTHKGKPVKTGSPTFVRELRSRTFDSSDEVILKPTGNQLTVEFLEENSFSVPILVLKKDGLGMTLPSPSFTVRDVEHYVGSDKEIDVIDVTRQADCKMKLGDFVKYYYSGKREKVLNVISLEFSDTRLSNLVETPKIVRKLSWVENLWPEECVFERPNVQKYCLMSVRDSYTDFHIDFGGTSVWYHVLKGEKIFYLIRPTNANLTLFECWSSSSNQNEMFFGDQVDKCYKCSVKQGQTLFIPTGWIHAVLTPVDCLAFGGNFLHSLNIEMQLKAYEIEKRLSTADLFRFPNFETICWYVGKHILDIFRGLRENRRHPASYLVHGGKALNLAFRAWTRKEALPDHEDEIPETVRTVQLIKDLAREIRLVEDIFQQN
KDM7A (PHD-JmjC), sequence (Q6ZMT4 37-386 limits assumed): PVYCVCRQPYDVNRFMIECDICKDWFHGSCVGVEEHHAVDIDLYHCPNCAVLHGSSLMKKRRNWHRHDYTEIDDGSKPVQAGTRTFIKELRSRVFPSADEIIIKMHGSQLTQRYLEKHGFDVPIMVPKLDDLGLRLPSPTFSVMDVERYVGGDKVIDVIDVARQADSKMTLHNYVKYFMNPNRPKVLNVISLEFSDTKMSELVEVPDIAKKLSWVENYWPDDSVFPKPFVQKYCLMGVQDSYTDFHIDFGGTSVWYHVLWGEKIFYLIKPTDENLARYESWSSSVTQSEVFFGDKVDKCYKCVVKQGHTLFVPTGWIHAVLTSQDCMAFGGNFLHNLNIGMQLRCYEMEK

Row | Structure (SMILES) | IC50 [1] [µM] | IC50 [2] [µM] | IC50 [3] [µM] | IC50 [4] [µM] | inhibition at 100 µM [5] [%]
1 | CCCCc1oc2ccccc2c1C(=O)c1ccc(OCCCN(C)C)cc1 [Compound 1a, (2-Butylbenzofuran-3-yl)(4-(3-(dimethylamino)propoxy)phenyl)methanone] | 166 ± 20 | 397 ± 77 | 158 ± 30 | 295 ± 48 | 95
2 | CCCCc1oc2ccccc2c1C(=O)c1ccc(OCCC[N+](C)(C)C)cc1.[I-] [Compound 2a, 3-(4-(2-Butylbenzofuran-3-carbonyl)phenoxy)-N,N,N-trimethylpropan-1-aminium iodide] | 340 ± 44 | 355 ± 39 | 579 ± 87 | 149 ± 32 | 89
